The structures appear in SMILES notation.

Data set [1] has as its system Human lung cancer cells, NCI-H226. Kind of data set: Inhibition of cancer cell growth (sulforhodamine B assay). In kind it is cell-based. Particulars: human lung cancer cells NCI-H226, 48 hr incubation, eight concentrations, SRB stain, absorbance 515 nm. The method, then: Human lung cancer cells, NCI-H226, were placed in 96-well microtiter plates (5,000 cells/100 μl/well). The plates were incubated at 37° C. under 5% CO2 and 95% air and 100% relative humidity for 24 hr. Cells in one plate were fixed in situ with trichloroacetic acid (TCA) to measure the cell population.
Compound 1 was dissolved in dimethylsulfoxide (DMSO) to give a solution at 400-fold the desired final maximum test concentration and stored frozen. An aliquot of the frozen DMSO solution was thawed and diluted to twice the desired final maximum test concentration. Additional ½ log serial dilutions were made to provide a total of eight concentrations. 100 μl aliquots of these different dilutions were added to the microtiter wells, resulting in the required final drug concentrations. After Compound 1 was added, the plates were incubated at 37° C. under 5% CO2 and 95% air and 100% relative humidity for an additional 48 hr. The cells were fixed in situ by slow addition of 50 μl of cold 50% (w/v) TCA and incubated at 4° C. for 60 minutes. The supernatant was removed, and the plates were gently washed twice with water and air-dried. […] The bound stain was subsequently solubilized with 10 mM trizma base, and absorbance was measured by an automated plate reader at the wavelength of 515 nm.

As for `O=C(O)CCC(=O)OCc1ccc(-c2nn(Cc3ccccc3)c3ccccc23)o1` [Compound 1, succinic acid mono-[5-(1-benzyl-1H-indazol-3-yl)-furan-2-ylmethyl]ester], in data set [1], the “inhibition of growth of NCI-H226” value is “effectively inhibited growth of NCI—H226”.

A word on the melting point: it is the temperature, or range, at which the solid turns liquid. `Cc1cc2c(o1)c(-c1ccc(COC(=O)CCC(=O)O)o1)nn2Cc1ccccc1` [Compound 7, succinic acid mono-[5-(1-benzyl-5-methyl-1H-furo[3,2-C]pyrazol-3-yl)-furan-2-ylmethyl]ester] yielded a melting point of 126.3 to 129 °C. The same measure, in the same setting: as for `O=C(O)CCC(=O)OCc1ccc(-c2nn(-c3ccc(Br)cc3)c3ccccc23)o1` [Compound 12, succinic acid mono-[5-(1-(4-bromo-phenyl)-1H-indazol-3-yl)-furan-2-ylmethyl]ester], the figure is 111 to 112.7 °C.
